Usually EC50 stands for the concentration that produces a half-maximal response. As a reminder, the Emax is the maximal effect, on the per cent scale that the assay sets.

Read-outs that look alike come from different tables or passages of the source.

We go through 2 molecules from PMC11887051, “Discovery of ONO-2920632 (VU6011887): A Highly Selective and CNS Penetrant TREK-2 (TWIK-Related K+ Channel 2) Preferring Activator In Vivo Tool Compound” (ACS Chemical Neuroscience, 2025).

Data set [1] has as its system rodents. Details: method as in PMID 32851651. To be noted: cited from earlier work.
Data set [2] deals with T1, TREK-1 (Homo sapiens, UniProt O95069).
T1 sequence (O95069 1-426): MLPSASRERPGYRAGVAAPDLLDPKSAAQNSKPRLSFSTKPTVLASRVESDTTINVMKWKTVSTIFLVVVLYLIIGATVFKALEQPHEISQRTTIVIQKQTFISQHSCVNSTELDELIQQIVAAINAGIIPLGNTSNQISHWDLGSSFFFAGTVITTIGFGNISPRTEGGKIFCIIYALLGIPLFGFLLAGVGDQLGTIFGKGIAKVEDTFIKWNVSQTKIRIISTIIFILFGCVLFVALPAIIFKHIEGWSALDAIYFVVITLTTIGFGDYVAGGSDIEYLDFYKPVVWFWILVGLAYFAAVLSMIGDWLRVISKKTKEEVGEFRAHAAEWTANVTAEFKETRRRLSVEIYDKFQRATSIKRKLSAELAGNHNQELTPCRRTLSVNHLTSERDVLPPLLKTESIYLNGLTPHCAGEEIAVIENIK
Also on record: method as in PMID 32851651. To be noted: read-out: functional EC50 for activation of TREK-1; cited from earlier work.

For data set [3], the target named is T1, TREK-1. Kind of data set: TREK-1 activation, BL-1249 series (assay not given). The data set is classed as cell-based. The settings on record: assay format not stated.
Data set [4] addresses T2, TREK-2 (Homo sapiens, UniProt P57789).
T2 sequence (P57789 1-538): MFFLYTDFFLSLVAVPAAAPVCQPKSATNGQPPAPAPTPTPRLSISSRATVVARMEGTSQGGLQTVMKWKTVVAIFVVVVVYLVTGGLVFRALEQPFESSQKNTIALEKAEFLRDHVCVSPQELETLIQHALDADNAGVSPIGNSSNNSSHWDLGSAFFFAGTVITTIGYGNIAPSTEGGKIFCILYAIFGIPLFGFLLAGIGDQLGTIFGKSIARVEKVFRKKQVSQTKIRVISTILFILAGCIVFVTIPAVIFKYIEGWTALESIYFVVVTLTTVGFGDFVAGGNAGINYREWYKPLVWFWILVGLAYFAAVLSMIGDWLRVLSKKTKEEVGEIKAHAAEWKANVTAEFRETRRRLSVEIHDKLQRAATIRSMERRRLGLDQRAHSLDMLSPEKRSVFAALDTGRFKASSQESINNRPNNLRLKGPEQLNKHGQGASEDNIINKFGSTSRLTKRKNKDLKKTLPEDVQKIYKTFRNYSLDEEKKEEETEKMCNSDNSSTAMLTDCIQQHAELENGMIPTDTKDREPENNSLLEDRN
In words: TREK-2 activation, BL-1249 series (assay not given). The data set is classed as cell-based. To be noted: assay format not stated.

Data set [5] can be described thus: rat plasma protein binding (equilibrium dialysis). The data set is classed as in vitro ADME. The settings on record: pH 7.4, read-out: rat plasma fu. How it is done:
In vitro Plasma protein binding and Brain homogenate binding: Determination of fraction unbound (f u) in plasma was conducted in vitro via equilibrium dialysis using HTDialysis (HTD) membrane plates. The top half of the plate was filled with 100 uL of Dubelco’s Phosphate Buffered Saline, pH 7.4 (DPBS). Compounds were diluted into plasma from each species (5 µM final concentration), which was aliquoted in triplicate to the ‘bottom half’ of the prepared HTD plate wells. The HTD plate was sealed and incubated for 6 hours at 37 °C. Following incubation, each well (both top and bottom halves) were transferred (20 µL) to the corresponding wells of a 96-shallow-well (V-bottom) plate. The daughter plates were then matrix-matched (DPBS side wells received equal volume of plasma, and plasma side wells received equal volume of DPBS), and extraction solution (120 µL; acetonitrile containing 50 nM carbamazepine as IS) was added to all wells of both daughter plates to precipitate protein and extract test article. The plates were then sealed and centrifuged (3500 rcf) for 10 minutes at ambient temperature. Supernatant (60 µL) from each well of the daughter plates was then transferred to the corresponding wells of new daughter plates (96-shallow-well, V bottom) containing water (Milli-Q, 60 µL/well), and the plates were sealed in preparation for LC-MS/MS analysis (see LC-MS/MS analysis method below).
The unbound fraction (f u) was calculated following the equation below, and mean values for each species were calculated from 3 replicates. […]
Fraction unbound for both plasma and brain samples was determined using Equation 4.
Equation 4 Determination of fraction unbound in plasma. […]
(In equilibrium dialysis only unbound substance equilibrates across the membrane.)

The nature of data set [6]: rat predicted hepatic clearance (hepatic microsomes). The data set is classed as in vitro ADME. The protocol: Intrinsic clearance: Human or rat hepatic microsomes (0.5 mg/mL) and 1 µM test compound were incubated in 100 mM potassium phosphate pH 7.4 buffer with 3 mM MgCl2 at 37 °C with constant shaking. After a 5 min preincubation, the reaction was initiated by the addition of NADPH (1 mM). At selected time intervals (0, 3, 7, 15, 25, and 45 min), aliquots were taken and subsequently placed into a 96-well plate containing cold acetonitrile with internal standard (50 ng/mL carbamazepine). Plates were then centrifuged at 3000 rcf (4 °C) for 10 min, and the supernatant was transferred to a separate 96-well plate and diluted 1:1 with water for LC/MS/MS analysis. The in vitro half-life ( 1/2, min, Eq. 1), intrinsic clearance (CLint, mL/min/kg, Eq. 2), and subsequent predicted hepatic clearance (CLhep, mL/min/kg, Eq. 3) was determined employing the […]
where k represents the slope from linear regression analysis of the natural log percent remaining of a test compound as a function of incubation time […]
(2) CLint = in vitroT1/2 x mg microsomes x gram liver x kg body wt ascale-up factors: of 20 (human) or 45 (rat) […]
where Qh (hepatic blood flow, mL/min/kg) is 21 (human) or 70 (rat).
LC/MS/MS Bioanalysis of Samples from Plasma Protein Binding and Intrinsic Clearance […]
Samples were analyzed on a Thermo Electron TSQ Quantum Ultra triple quad mass spectrometer (San Jose, CA) via electrospray ionization (ESI) with two Themo Electron Accella pumps (San Jose, CA), and a Leap Technologies CTC PAL autosampler (Carrboro, NC). Analytes were separated by gradient elution on a dual column system with two Thermo Hypersil Gold (2.1 x 30 mm, 1.9 µm) columns (San Jose, CA) thermostated at 40 °C. HPLC mobile phase A was 0.1% formic acid in water and mobile phase B was 0.1% formic acid in acetonitrile. The gradient started […]
for 0.2 min; returned to 10% B in 0.1 min. The total run time was 1.3 min and the HPLC flow rate was 0.8 mL/min. While pump 1 ran the gradient method, pump 2 equilibrated the alternate column isocratically at 10% B. Compound optimization, data collection, and processing was performed using Thermo Electron's QuickQuan software (v2.3) and Xcalibur (v2.0.7 SP1).

In the case of `N#C/C(=C\c1ccoc1)C(=O)O` [Compound 3], the “morphine-like adverse events at efficacious doses” value in data set [1] is “did not induce respiratory depression, rewarding effects, depression, constipation or other morphine-inducing adverse events”. Besides, the antinociceptive activity result in data set [1] (naïve rodents and models of neuropathic and inflammatory pain) is reported as “antinociceptive activity”. Further, the EC50 in data set [2] was 37 µM.
As for `O=c1[nH]c(-c2ccc(F)cc2Nc2cccc(C(F)(F)F)c2)no1` [Compound 11], the EC50 was 3.6 µM in data set [3] and 12.9 µM in data set [4]. Moreover, the values for the Emax in data set [3] and in data set [4] were 67% and 129%, respectively. Further, the fraction unbound at 6 h, 5 µM in data set [5] was 0.042. Moreover, the “rat CLhep (predicted hepatic clearance)” value in data set [6] is recorded as 26.8 mL/min/kg.
